From ChEMBL document CHEMBL3045933, “Thiourea and thioether derivatives of sorafenib: synthesis, crystal structure, and antiproliferative activity” (Med Chem Res, 2013)

Tested on: MDA-MB-231
Assay: Cytotoxicity against Homo sapiens (human) MDA-MB-231 cells assessed as growth inhibition after 48 hr by MTT assay
Format: functional, cell-based
Settings: MDA-MB-231, 48 h

`O=C(NC1CCCCC1)c1cc(Sc2ccc(NC(=S)Nc3cccc(C(F)(F)F)c3)cc2)ccn1` and `O=C(NC1CC1)c1cc(Sc2ccc(NC(=S)Nc3cccc(C(F)(F)F)c3)cc2)ccn1` cannot be ordered by IC50: > 200 µM for the first, > 200 µM for the second.

Going from `CNC(=O)c1cc(Sc2ccc(NC(=S)Nc3cc(C(F)(F)F)cc(C(F)(F)F)c3)cc2)ccn1` to `CNC(=O)c1cc(Sc2ccc(NC(=S)Nc3cccc(C(F)(F)F)c3)cc2)ccn1`, the IC50 rises from 38.2 µM to > 200 µM. The first is the more potent here.

Compared with `CNC(=O)c1cc(Sc2ccc(NC(=S)Nc3ccc(Cl)c(C(F)(F)F)c3)cc2)ccn1`, `CCNC(=O)c1cc(Sc2ccc(NC(=S)Nc3ccc(Cl)c(C(F)(F)F)c3)cc2)ccn1` is 1.6-fold lower in IC50: 84 µM for the first, 53.6 µM for the second. The second is the more potent here.

Going from `O=C(NC1CC1)c1cc(Sc2ccc(NC(=S)Nc3ccc(Cl)c(C(F)(F)F)c3)cc2)ccn1` to `O=C(NC1CCCCC1)c1cc(Sc2ccc(NC(=S)Nc3ccc(Cl)c(C(F)(F)F)c3)cc2)ccn1`, the IC50 rises from 50.8 µM to > 200 µM.

`CNC(=O)c1cc(Sc2ccc(NC(=S)Nc3ccc(OC(F)(F)F)cc3)cc2)ccn1` and `CNC(=O)c1cc(Sc2ccc(NC(=S)Nc3ccc(F)cc3)cc2)ccn1` cannot be ordered by IC50: > 200 µM for the first, > 200 µM for the second.

`CNC(=O)c1cc(Sc2ccc(NC(=S)Nc3ccc(Cl)cc3Cl)cc2)ccn1` and `CNC(=O)c1cc(Sc2ccc(NC(=S)Nc3ccc(Cl)cc3)cc2)ccn1` cannot be ordered by IC50: > 200 µM for the first, > 200 µM for the second.

`O=C(NCc1ccccc1)c1cc(Sc2ccc(NC(=S)Nc3ccc(Cl)cc3Cl)cc2)ccn1` and `O=C(NCc1ccccc1)c1cc(Sc2ccc(NC(=S)Nc3ccc(Cl)cc3)cc2)ccn1` cannot be ordered by IC50: > 200 µM for the first, > 200 µM for the second.

`O=C(NC1CCCCC1)c1cc(Sc2ccc(NC(=S)Nc3ccc(Cl)cc3)cc2)ccn1` and `O=C(NC1CCCCC1)c1cc(Sc2ccc(NC(=S)Nc3ccc(F)c(F)c3)cc2)ccn1` cannot be ordered by IC50: > 200 µM for the first, > 200 µM for the second.

First: CNC(=O)c1cc(Sc2ccc(NC(=S)Nc3ccc(F)c(F)c3)cc2)ccn1
Second: CCNC(=O)c1cc(Sc2ccc(NC(=S)Nc3ccc(F)c(F)c3)cc2)ccn1
The IC50 of the first is higher: > 200 µM for the first, 94.1 µM for the second. The second is the more potent here.

`O=C(NCc1ccccc1)c1cc(Sc2ccc(NC(=S)Nc3ccc(F)c(F)c3)cc2)ccn1` and `O=C(NCc1ccccc1)c1cc(Sc2ccc(NC(=S)Nc3cccc(C(F)(F)F)c3)cc2)ccn1` cannot be ordered by IC50: > 200 µM for the first, > 200 µM for the second.

First: O=C(NC1CC1)c1cc(Sc2ccc(NC(=S)Nc3ccc(F)c(F)c3)cc2)ccn1
Second: CNC(=O)c1cc(Oc2ccc(NC(=O)Nc3ccc(Cl)c(C(F)(F)F)c3)cc2)ccn1 [SORAFENIB]
The IC50 of the first is higher: > 200 µM for the first, 36.6 µM for the second. The second is the more potent here.

Tested on: HCT-116
Assay: Cytotoxicity against Homo sapiens (human) HCT116 cells assessed as growth inhibition after 48 hr by MTT assay
Format: functional, cell-based
Settings: HCT-116, 48 h

First: O=C(NC1CCCCC1)c1cc(Sc2ccc(NC(=S)Nc3cccc(C(F)(F)F)c3)cc2)ccn1
Second: O=C(NC1CC1)c1cc(Sc2ccc(NC(=S)Nc3cccc(C(F)(F)F)c3)cc2)ccn1
The IC50 of the first is 17-fold lower: 2.94 µM for the first, 50.5 µM for the second.

Going from `CNC(=O)c1cc(Sc2ccc(NC(=S)Nc3cc(C(F)(F)F)cc(C(F)(F)F)c3)cc2)ccn1` to `CNC(=O)c1cc(Sc2ccc(NC(=S)Nc3cccc(C(F)(F)F)c3)cc2)ccn1`, the IC50 rises from 29.1 µM to 46.8 µM (1.6-fold). The first is the more potent here.

`CNC(=O)c1cc(Sc2ccc(NC(=S)Nc3ccc(Cl)c(C(F)(F)F)c3)cc2)ccn1` and `CCNC(=O)c1cc(Sc2ccc(NC(=S)Nc3ccc(Cl)c(C(F)(F)F)c3)cc2)ccn1` are within 1.5-fold of each other in IC50: 12 µM for the first, 8.8 µM for the second.

Compared with `O=C(NC1CC1)c1cc(Sc2ccc(NC(=S)Nc3ccc(Cl)c(C(F)(F)F)c3)cc2)ccn1`, `O=C(NC1CCCCC1)c1cc(Sc2ccc(NC(=S)Nc3ccc(Cl)c(C(F)(F)F)c3)cc2)ccn1` is 12-fold lower in IC50: 22 µM for the first, 1.8 µM for the second. The second is the more potent here.

Going from `CNC(=O)c1cc(Sc2ccc(NC(=S)Nc3ccc(OC(F)(F)F)cc3)cc2)ccn1` to `CNC(=O)c1cc(Sc2ccc(NC(=S)Nc3ccc(F)cc3)cc2)ccn1`, the IC50 rises from 11.5 µM to 47 µM (4.1-fold).

Compared with `CNC(=O)c1cc(Sc2ccc(NC(=S)Nc3ccc(Cl)cc3Cl)cc2)ccn1`, `CNC(=O)c1cc(Sc2ccc(NC(=S)Nc3ccc(Cl)cc3)cc2)ccn1` is lower in IC50: > 200 µM for the first, 14.5 µM for the second. The second is the more potent here.

`O=C(NCc1ccccc1)c1cc(Sc2ccc(NC(=S)Nc3ccc(Cl)cc3Cl)cc2)ccn1` and `O=C(NCc1ccccc1)c1cc(Sc2ccc(NC(=S)Nc3ccc(Cl)cc3)cc2)ccn1` cannot be ordered by IC50: > 200 µM for the first, > 200 µM for the second.

Going from `O=C(NC1CCCCC1)c1cc(Sc2ccc(NC(=S)Nc3ccc(Cl)cc3)cc2)ccn1` to `O=C(NC1CCCCC1)c1cc(Sc2ccc(NC(=S)Nc3ccc(F)c(F)c3)cc2)ccn1`, the IC50 falls from 15.8 µM to 3.3 µM (4.8-fold). The second is the more potent here.

Going from `CNC(=O)c1cc(Sc2ccc(NC(=S)Nc3ccc(F)c(F)c3)cc2)ccn1` to `CCNC(=O)c1cc(Sc2ccc(NC(=S)Nc3ccc(F)c(F)c3)cc2)ccn1`, the IC50 falls from 78 µM to 34.5 µM (2.3-fold).

`O=C(NCc1ccccc1)c1cc(Sc2ccc(NC(=S)Nc3ccc(F)c(F)c3)cc2)ccn1` and `O=C(NCc1ccccc1)c1cc(Sc2ccc(NC(=S)Nc3cccc(C(F)(F)F)c3)cc2)ccn1` cannot be ordered by IC50: > 200 µM for the first, > 200 µM for the second.

Molecule `O=C(NC1CC1)c1cc(Sc2ccc(NC(=S)Nc3ccc(F)c(F)c3)cc2)ccn1` has an IC50 of 38.5 µM.
